From patent US20130203805A1, “Methods for treating anemia using inhibitors of hypoxia-inducible factor (HIF) hydroxylase” (FIBROGEN, INC., priority 2001, published 2013)

Assays:
[1] = Dose response in vivo: reticulocytes, hemoglobin, hematocrit (Example 3); design: species or system Sprague Dawley male rats; settings: rats
Description: (§1) Twelve Sprague Dawley male rats (approx. 260 g) were obtained from Charles River Laboratories, Inc., and treated by oral gavage as follows: (1) Four rats were dosed daily for days 1 to 7 with 0.5% carboxymethyl cellulose (CMC; Sigma-Aldrich, St. Louis Mo.) (0 mg/kg), were not treated for days 8 to 14, and then were dosed daily for days 15 to 19 with 0.5% CMC (0 mg/kg); (2) four animals were treated on day 0 and day 3 with a total of 7 ml/kg/day of 5.0% compound C (50 mg/ml in 0.5% CMC) (350 mg/kg), were not treated days 8 to 14, and then were dosed daily for days 15 to 19 with 3% compound C: (30 mg/ml in 0.5% CMC) (60 mg/kg/day); and (3) four animals were treated daily for days 1 to 7 with a total volume of 4 ml/kg/day of 2.5% compound C (25 mg/ml in 0.5% CMC) (100 mg/kg), were not treated days 8 to 14, and then were dosed daily for days 15 to 19 with 3% compound C (60 mg/kg/day). Thus, groups (2) and (3) received a total of 700 mg compound/kg body weight over the first 7 days, no treatment from days 8 to 14, and then 60 mg/kg/day for another 5 days. Animals were monitored for change in body weight and signs of toxicity. Blood samples (2×0.5 ml) were collected on days 1, 3, 7, 10, 17 and 21 as follows. Animals were anesthetized with isoflurane and 0.5 ml of blood was collected from the tail vein of each animal into each of two MICROTAINER EDTA-2K tubes (Becton-Dickinson). Blood samples were processed for erythropoietin levels, hemoglobin, and hematocrit as described above.

erythropoietin (EPO) = assay: Serum/plasma erythropoietin level by immunoassay (Example 2, Experiment I); format: in vivo, Swiss Webster male mice; settings: mice; 200 mg/kg/day oral gavage 2.5 days; 4 h after final dose; relative to untreated controls; FIG. 2B
Description: Twelve Swiss Webster male mice (30-32 g) were obtained from Simonsen, Inc. (Gilroy Calif.), and treated by oral gavage two times per day for 2.5 days (5 doses) with a 4 ml/kg volume of either 0.5% carboxymethyl cellulose (CMC; Sigma-Aldrich, St. Louis Mo.) (0 mg/kg/day) or 2.5% Compound C (25 mg/ml in 0.5% CMC) (200 mg/kg/day). Four hours after the final dose, animals were anesthetized with isoflurane and two blood samples were collected from the abdominal vein. One blood sample was collected into a MICROTAINER serum separator tube (Becton-Dickinson, Franklin Lakes N.J.), and incubated at room temperature for 30 minutes, centrifuged at 8,000 rpm at 4° C. for 10 minutes. The serum fraction was then processed and analyzed for erythropoietin (EPO) expression using a QUANTIKINE immunoassay (R&D Systems) according to the manufacturer's instructions. The second blood sample was collected into a MICROTAINER EDTA-2K tube (Becton-Dickinson) for hematocrit analysis. Hematocrit was measured by drawing EDTA-blood into a 75 mm×1.1-12 mm I.D. capillary tube (Chase Scientific Glass, Inc., Rockwood Tenn.) to approximately ¾ length. One end of the tube was sealed with CRITOSEAL sealant (Sherwood Medical Company) and the tube was centrifuged in a J-503M MICROHEMATOCRIT centrifuge (Jorgensen Laboratories, Inc., Loveland Colo.) at 12,000 rpm for 5 minutes. Hematocrit was read against a reader card. […]

erythropoietin [2] = assay: Dose response in vivo: serum erythropoietin (Example 3); design: species or system Sprague Dawley male rats; settings: rats; oral gavage 350 mg/kg on two days or 100 mg/kg daily days 1 to 7; within 1 day of treatment; FIG. 4A
Description: as §1, with “Blood samples were processed for erythropoietin levels, hemoglobin, and hematocrit as described above.” left out

erythropoietin [3] = assay: Erythropoietin production following bilateral nephrectomy: serum erythropoietin (Example 8); format: in vivo; settings: rats, 100 or 150 mg/kg oral gavage at 2 and 20 hours post-surgery, blood at 24 hours, FIG. 7
Description: The ability of a compound of the invention to induce endogenous erythropoietin production in the absence of functioning kidney was assayed using a procedure described by Jacobson et al, (1957, Nature 179:633-634.) Briefly, rats were anesthetized under isoflurane and a midline abdominal incision was made under sterile conditions. The kidney capsules were peeled off, the pedicles were ligated, and both kidneys were removed. The abdomen was then closed and the animal was allowed to recover.
Animals were treated by oral gavage at 2 and 20 hours post-surgery with either 0.5% carboxymethyl cellulose (CMC; Sigma-Aldrich, St. Louis Mo.) or with compound C at 100 or 150 mg/kg. Blood samples (0.6 ml) were collected at 24 hours as follows. Animals were anesthetized with isoflurane and blood was collected from the tail vein into a MICROTAINER EDTA-2K tube (Becton-Dickinson). Blood samples were processed for erythropoietin levels and hematocrit as described in Example 2. Complete Blood Count (CBC) analysis, including blood hemoglobin level, reticulocyte number, and hematocrit, was performed by IDEXX veterinary service (W. Sacramento, Calif.).

O=C(O)CNC(=O)c1nc(Cl)c2ccccc2c1O [Compound C, [(1-chloro-4-hydroxy-isoquinoline-3-carbonyl)-amino]-acetic acid]
increase in hemoglobin and hematocrit with lower doses ([1]; 60 mg/kg/day days 15 to 19 after no treatment days 8 to 14): maintained over an extended period of time
immature blood cells (reticulocytes) ([1]; oral gavage, total 700 mg/kg over first 7 days, FIG. 4B): subsequent increase
blood hemoglobin levels ([1]; oral gavage, total 700 mg/kg over first 7 days, FIG. 4C): increased
hematocrit ([1]; oral gavage, total 700 mg/kg over first 7 days, FIG. 4D): increased
erythropoietin plasma level (erythropoietin (EPO)): significant increase
serum erythropoietin level (erythropoietin [2]): significantly increased
serum erythropoietin levels, sham-operated animals (erythropoietin [3]): significantly increased
serum erythropoietin levels, bilaterally nephrectomized animals (erythropoietin [3]; relative to untreated BN and sham controls): noticably increased
